Assay results from patent US8536332B2, “Modulating signal transduction pathways with substituted pyridol [2,3-b] pyrazines” (Aeterna Zentaris GmbH, priority 2007, dated 2013).

Experiments:
Erk2 = biological target: T1, Erk2 (Mus musculus, UniProt P63085); test: Cell-free kinase assay Erk2-ALPHA; type: biochemical, human; details: 10 μM ATP
T1 construct: purchased Upstate #14-173
Method: (§1) The inhibitory effect of the compounds of the invention was tested on various human serine/threonine kinases, tyrosine kinases and lipid kinases in enzymatic assays. Recombinant human kinases, for example PI3Kalpha, -beta, -gamma, -delta, Erk2, p38alpha, p38gamma, Jnk1, Jnk2 and others were used, in some cases as full-length kinases, in some cases as truncated fragments—but at least consisting of the functional kinase domains. The commercial kinase proteins (Proqinase, Upstate) were used as recombinant fusion proteins with GST (glutathione S-transferase) tag or His tag. Depending on the substrate type, the different kinase reactions were quantified by suitable ALPHA™ beads (PerkinElmer).
(§2) The kinase assays for PI3K and Erk are described in detail and selected test results are cited below. […] Subsequently, the kinase reaction was stopped by adding the ALPHA bead mix (10 μg/ml, #6760603/PerkinElmer), preincubated with 1 nM GST:Grp1 fusion protein (Upstate) and […] (#C-39B6/Echelon) in 50 mM Hepes, 50 mM NaCl, 50 mM EDTA and 0.1% BSA, and left to stand overnight. • b) Erk2-ALPHA: The test substance, 0.625 ng of Erk2 (#14-173, Upstate), 10 μM ATP and 15 nM biotinylated MBP (myelin basic protein) substrate were incubated on a 384-well Optiplate (Perkin Elmer) in a volume of 15 μl for 1 h in 25 mM Tris, 10 mM MgCl2, 0.1% Tween-20, 100 μM NaVO4, 2 mM DTT at pH 7.5. The kinase reaction was stopped by adding 10 μl of the ALPHA bead mix (10 μg/ml, #6760617/PerkinElmer), pre-incubated with anti-phospho MBP antibody (320 pM, #05-429/Upstate), in 25 mM Tris, 200 mM NaCl, 100 mM EDTA and 0.3% BSA, and left to stand overnight.
(§3) The luminiscence was detected the next morning in a Fusion™ alpha instrument (Perkin Elmer).
(§4) The calculation of % inhibition values per substance concentration was done by means of the following formula from the raw data determined in the Fusion™ alpha:
(§5) The controls were determined 8 fold and the substance samples 2 fold. 0% control contained neither any ATP nor any substrate. The 100% control contained no test substance. The IC50 values were determined with GraphPadPrism.

Jnk1 + Jnk2 = test system: T2, Jnk1 + Jnk2; test: Cell-free kinase assay (ALPHA technology) Jnk1 + Jnk2; type: biochemical, human; details: 10 μM ATP
T2 construct: fused on or other part: GST tag or His tag (commercial recombinant fusion proteins from Proqinase or Upstate)
Method: as §1, §2, §3, §4, §5

p38alpha = p38alpha (Homo sapiens, UniProt Q16539); test: Cell-free kinase assay (ALPHA technology) p38alpha; type: biochemical; details: 10 μM ATP
p38alpha, sequence (Q16539 whole entry): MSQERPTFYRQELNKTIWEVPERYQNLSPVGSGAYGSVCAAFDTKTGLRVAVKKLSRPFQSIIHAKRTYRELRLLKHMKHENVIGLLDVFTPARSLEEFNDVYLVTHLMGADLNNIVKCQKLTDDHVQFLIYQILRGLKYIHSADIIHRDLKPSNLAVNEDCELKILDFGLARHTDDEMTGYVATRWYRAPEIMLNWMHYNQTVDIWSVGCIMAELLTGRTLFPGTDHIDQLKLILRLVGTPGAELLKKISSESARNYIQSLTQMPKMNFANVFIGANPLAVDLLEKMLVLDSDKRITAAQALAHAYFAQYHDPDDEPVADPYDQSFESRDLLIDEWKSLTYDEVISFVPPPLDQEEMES
Method: as §1, §2, §3, §4, §5

MDA-MB468 = test: XTT assay, anti-proliferative activity, MDA-MB468; type: cell-based; details: Homo sapiens, MDA-MB-468; 45 h incubation
Method: (§6) The principle of this test is based on the intracellular reduction of the tetrazolium dye XTT (sodium 3′-[1-(phenylaminocarbonyl)-3,4-tetrazolium]bis(4-methoxy-6-nitro)benzenesulphonic acid, Sigma) to a formazan dye by mitochondrial dehydrogenases. The dye is formed only by metabolically active cells. Its photometrically measurable intensity is a quantitative indicator for the presence of living cells. The reduction in the dye formation as a result of incubation of the cells with substances serves as a parameter for the anti-proliferative activity.
(§7) The tumour cell lines (ATCC) were seeded in 96-well microtitre plates in a defined cell count (5000 cells/well for Hct116; 10000 cells/well for MDA MB468), and incubated overnight at 37° C., 5% CO2 and 95% air humidity. The test substances were made up as stock solutions (10 mM) in DMSO. […] The cell plates were then incubated for 45 h at 37° C., 5% CO2 and 95% air humidity.
(§8) For the detection reaction, the XTT substrate was mixed with PMS (N-methyldibenzopyrazine methylsulphate, Sigma) and added to the cells, to result in a final concentration of 325 μg of XTT/ml and 2.5 μg PMS/ml. The mixture was then incubated for 3 h at 37° C., 95% air humidity. Subsequently the formazan salt formed by cellular dehydrogenases was quantified at an absorption of 490 nm.
(§9) The evaluation of the % inhibition values was done by means of the following formula from the values for the optical densities measured in each case at 490 nm:
(§10) The controls were determined 8 fold, the substance samples 2 fold. 0% control contained no cells and the 100% control contained no test substance. The EC50 values were determined with GraphPadPrism.

Hct116 = test: XTT assay, anti-proliferative activity, Hct116; type: cell-based; details: Homo sapiens, HCT-116; 45 h incubation
Method: as §6, §7, §8, §9, §10

T1 sequence (P63085 whole entry): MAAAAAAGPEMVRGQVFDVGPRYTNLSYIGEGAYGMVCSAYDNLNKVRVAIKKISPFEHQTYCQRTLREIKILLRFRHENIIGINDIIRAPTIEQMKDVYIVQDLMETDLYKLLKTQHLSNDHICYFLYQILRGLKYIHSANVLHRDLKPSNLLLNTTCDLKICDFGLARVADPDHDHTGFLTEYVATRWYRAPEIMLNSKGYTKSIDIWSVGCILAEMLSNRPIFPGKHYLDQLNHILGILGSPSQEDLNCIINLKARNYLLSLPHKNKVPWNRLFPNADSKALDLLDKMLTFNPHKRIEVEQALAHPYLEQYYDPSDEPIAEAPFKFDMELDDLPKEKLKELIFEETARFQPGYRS

Row | SMILES | IC50 (Erk2) [µM] | melting point [°C] | IC50 (Jnk1 + Jnk2) [µM] | IC50 (p38alpha) [µM] | EC50 (MDA-MB468) [µM] | EC50 (Hct116) [µM]
1 | COc1cc(-c2ccc3ncc(NC(=O)NC4CCCC4)nc3n2)ccc1O [Compound 20, 1-Cyclopentyl-3-[6-(4-hydroxy-3-methoxy-phenyl)-pyrido[2,3-b]pyrazin-3-yl]-urea] | > 100 | 222 to 225 | > 100 | > 100 |  | 
2 | COc1cc(-c2ccc3ncc(NC(=O)NC4CCN(C(=O)C(F)(F)F)CC4)nc3n2)ccc1O [Compound 30, 1-[6-(4-Hydroxy-3-methoxy-phenyl)-pyrido[2,3-b]pyrazin-3-yl]-3-[1-(2,2,2-trifluoro-acetyl)-piperidin-4-yl]-urea] | < 10 | 236 to 239 | < 31.6 | < 10 |  | 
3 | CCNC(=S)Nc1ccc2ncc(-c3cc(Cl)c(O)c(Cl)c3)nc2n1 [Compound 138, 1-[3-(3,5-Dichloro-4-hydroxy-phenyl)-pyrido[2,3-b]pyrazin-6-yl]-3-ethyl-thiourea] |  |  |  |  | < 10 | < 10
4 | CCNC(=S)Nc1ccc2ncc(Nc3ccc(O)c(OC)c3)nc2n1 [Compound 150, 1-Ethyl-3-[3-(4-hydroxy-3-methoxy-phenylamino)-pyrido[2,3-b]pyrazin-6-yl]-thiourea] |  | 269 |  |  | < 5 | < 5
5 | CCNC(=O)Nc1ccc2ncc(-c3cccs3)nc2n1 [Compound 152, 1-Ethyl-3-(3-thiophen-2-yl-pyrido[2,3-b]pyrazin-6-yl)-urea] |  | 227 to 228 |  |  | < 10 | < 10
6 | COc1cc(-c2ccc3ncc(NC(=O)NCCCl)nc3n2)ccc1O [Compound 173, 1-(2-Chloro-ethyl)-3-[6-(4-hydroxy-3-methoxy-phenyl)-pyrido[2,3-b]pyrazin-3-yl]-urea] | < 50 | 215 to 218 | < 31.6 | < 50 | < 1 | < 1
7 | CCNC(=O)Nc1cnc2ccc(-c3cc(C)c(O)c(C)c3)nc2n1 [Compound 181, 1-Ethyl-3-[6-(4-hydroxy-3,5-dimethyl-phenyl)-pyrido[2,3-b]pyrazin-3-yl]-urea] | > 100 | > 240 | > 100 | < 50 | < 10 | < 10
8 | COc1cc(Nc2cnc3ccc(NC(=S)NC4CCCC4)nc3n2)cc(OC)c1OC [Compound 509, 1-Cyclopentyl-3-[3-(3,4,5-trimethoxy-phenylamino)-pyrido[2,3-b]pyrazin-6-yl]-thiourea] | > 100 | 246 | > 100 | > 100 | < 5 | < 5
9 | CC(C)(C)NC(=O)Nc1cnc2ccc(-c3cc(Cl)c(O)c(Cl)c3)nc2n1 [Compound 553, 1-tert-Butyl-3-[6-(3,5-dichloro-4-hydroxy-phenyl)-pyrido[2,3-b]pyrazin-3-yl]-urea] | > 100 | 251 to 253 | < 100 | > 100 | < 5 | < 5
10 | CNC(=O)Nc1cnc2ccc(-c3ccc(OC)c(OC)c3)nc2n1 [Compound 566, 1-[6-(3,4-Dimethoxy-phenyl)-pyrido[2,3-b]pyrazin-3-yl]-3-methyl-urea] | > 100 | 253 to 255 | > 100 | > 31.6 | < 5 | < 5
11 | COc1cc(-c2ccc3ncc(NC(=O)Nc4cccs4)nc3n2)ccc1O [Compound 614, 1-[6-(4-Hydroxy-3-methoxy-phenyl)-pyrido[2,3-b]pyrazin-3-yl]-3-thiophen-2-yl-urea] | < 31.6 | 216 to 219 | < 31.6 | < 10 | < 5 | < 5

Continued, values first:

Row | IC50 (Erk2) [µM] | melting point [°C] | IC50 (Jnk1 + Jnk2) [µM] | IC50 (p38alpha) [µM] | EC50 (MDA-MB468) [µM] | EC50 (Hct116) [µM] | SMILES
12 |  | 216 to 219 |  |  | < 5 | < 5 | CCNC(=O)Nc1ccc2ncc(Nc3cccc(OC)c3)nc2n1 [Compound 89, 1-Ethyl-3-[3-(3-methoxy-phenylamino)-pyrido[2,3-b]pyrazin-6-yl]-urea]
13 |  | 242 |  |  | < 5 | < 5 | CCNC(=S)Nc1ccc2ncc(-c3cnn(C)c3)nc2n1 [Compound 113, 1-Ethyl-3-[3-(1-methyl-1H-pyrazol-4-yl)-pyrido[2,3-b]pyrazin-6-yl]-thiourea]
14 |  | 278 |  |  | < 5 | < 5 | CCNC(=S)Nc1ccc2ncc(Nc3ccc(C)cc3)nc2n1 [Compound 126, 1-Ethyl-3-(3-p-tolylamino-pyrido[2,3-b]pyrazin-6-yl)-thiourea]
15 |  | 230 |  |  | < 5 | < 5 | CCNC(=S)Nc1ccc2ncc(-c3cc(OC)c(OC)c(OC)c3)nc2n1 [Compound 134, 1-Ethyl-3-[3-(3,4,5-trimethoxy-phenyl)-pyrido[2,3-b]pyrazin-6-yl]-thiourea]
16 |  |  |  |  | < 5 | < 5 | CCNC(=S)Nc1ccc2ncc(-c3ccc(N)c(OC)c3)nc2n1 [Compound 140, 1-[3-(4-Amino-3-methoxy-phenyl)-pyrido[2,3-b]pyrazin-6-yl]-3-ethyl-thiourea]
17 | > 100 | 272 | > 31.6 | > 100 | < 5 | < 5 | CCNC(=S)Nc1ccc2ncc(Nc3ccc(OC)c(O)c3)nc2n1 [Compound 147, 1-Ethyl-3-[3-(3-hydroxy-4-methoxy-phenylamino)-pyrido[2,3-b]pyrazin-6-yl]-thiourea]
18 |  | 285 |  |  | < 5 | < 10 | CCNC(=S)Nc1ccc2ncc(Nc3ccccc3)nc2n1 [Compound 148, 1-Ethyl-3-(3-phenylamino-pyrido[2,3-b]pyrazin-6-yl)-thiourea]
19 | < 31.6 | 268 | > 100 | < 50 | < 1 | < 1 | CCNC(=S)Nc1ccc2ncc(Nc3cc(OC)c(OC)c(OC)c3)nc2n1 [Compound 160, 1-Ethyl-3-[3-(3,4,5-trimethoxy-phenylamino)-pyrido[2,3-b]pyrazin-6-yl]-thiourea]
20 | > 31.6 | 234 to 237 | < 50 | < 50 | < 1 | < 1 | COc1cc(-c2ccc3ncc(NC(=O)Nc4ccncc4)nc3n2)ccc1O [Compound 176, 1-[6-(4-Hydroxy-3-methoxy-phenyl)-pyrido[2,3-b]pyrazin-3-yl]-3-pyridin-4-yl-urea]
21 | > 100 | 279 to 280 | > 100 | < 50 | < 1 | < 5 | CNC(=S)Nc1cnc2ccc(-c3ccc(O)c(OC)c3)nc2n1 [Compound 526, 1-[6-(4-Hydroxy-3-methoxy-phenyl)-pyrido[2,3-b]pyrazin-3-yl]-3-methyl-thiourea]
22 | > 100 | 262 to 264 |  |  | < 1 | < 1 | O=C(Nc1cnc2ccc(-c3cc(Cl)c(O)c(Cl)c3)nc2n1)NC1CCCC1 [Compound 563, 1-Cyclopentyl-3-[6-(3,5-dichloro-4-hydroxy-phenyl)-pyrido[2,3-b]pyrazin-3-yl]-urea]
